Source: patent publication US6090821A, “Substituted quinolin-2 (1H)-ones useful as HIV reverse transcriptase inhibitors” (E. I. DuPont de Nemours and Company, priority 1999, dated 2000)
Converted amounts (≈) assume the structure as drawn.

System: HIV-1 (RF)
Assay: HIV RNA assay: microplate based compound evaluation in HIV-1 infected MT-2 cells
Assay type: cell-based
Settings: Human immunodeficiency virus 1, MT2, 72 h; HIV-1 (RF) infected MT-2 cells, 3 days at 37° C.; virus dilutions selected to give this ddC value (standardization of inoculum); read-out: IC90 value (concentration of compound required to reduce the HIV RNA level by 90%)
Protocol: Plasmid pDAB 72 containing both gag and pol sequences of BH10 (bp 113-1816) cloned into PTZ 19R was prepared according to Erickson-Viitanen et al. AIDS Research and Human Retroviruses 1989, 5, 577. The plasmid was linearized with Bam HI prior to the generation of in vitro RNA transcripts using the Riboprobe Gemini system II kit (Promega) with T7 RNA polymerase. Synthesized RNA was purified by treatment with RNase free DNAse (Promega), phenol-chloroform extraction, and ethanol precipitation. RNA transcripts were dissolved in water, and stored at -70° C. The concentration of RNA was determined from the A260.
Biotinylated capture probes were purified by HPLC after synthesis on an Applied Biosystems (Foster City, Calif.) DNA synthesizer by addition of biotin to the 5' terminal end of the oligonucleotide, using the biotin-phosphoramidite reagent of Cocuzza, Tet. Lett. 1989, 30, 6287. […]
MT-2 and MT-4 cells were maintained in RPMI 1640 supplemented with 5% fetal calf serum (FCS) for MT-2 cells or 10% FCS for MT-4 cells, 2 mM L-glutamine and 50 μg/mL gentamycin, all from Gibco. […] Infectious titers of HIV-1(RF) stocks were 1-3×10^7 PFU (plaque forming units)/mL as measured by plaque assay on MT-2 cells (see below). […]

IC90: 0.2 µg/mL (≈ 0.947 µM)
Structure (SMILES): Nc1ccn([C@H]2CC[C@@H](CO)O2)c(=O)n1 [ddC, 2',3'-dideoxycytidine]
